The assay addresses T1, Murine TRPV1 (Mus musculus, UniProt Q704Y3).
T1 construct: full-length channel, eYFP fused to C terminus (pEYFP-N3), expressed in HEK293T; cDNA gift of Michael X. Zhu; homotetramer
Kind of assay: whole-cell patch clamp, Hill fit. In kind it is cell-based.

T1 sequence (Q704Y3 whole entry, the tested form may be a part): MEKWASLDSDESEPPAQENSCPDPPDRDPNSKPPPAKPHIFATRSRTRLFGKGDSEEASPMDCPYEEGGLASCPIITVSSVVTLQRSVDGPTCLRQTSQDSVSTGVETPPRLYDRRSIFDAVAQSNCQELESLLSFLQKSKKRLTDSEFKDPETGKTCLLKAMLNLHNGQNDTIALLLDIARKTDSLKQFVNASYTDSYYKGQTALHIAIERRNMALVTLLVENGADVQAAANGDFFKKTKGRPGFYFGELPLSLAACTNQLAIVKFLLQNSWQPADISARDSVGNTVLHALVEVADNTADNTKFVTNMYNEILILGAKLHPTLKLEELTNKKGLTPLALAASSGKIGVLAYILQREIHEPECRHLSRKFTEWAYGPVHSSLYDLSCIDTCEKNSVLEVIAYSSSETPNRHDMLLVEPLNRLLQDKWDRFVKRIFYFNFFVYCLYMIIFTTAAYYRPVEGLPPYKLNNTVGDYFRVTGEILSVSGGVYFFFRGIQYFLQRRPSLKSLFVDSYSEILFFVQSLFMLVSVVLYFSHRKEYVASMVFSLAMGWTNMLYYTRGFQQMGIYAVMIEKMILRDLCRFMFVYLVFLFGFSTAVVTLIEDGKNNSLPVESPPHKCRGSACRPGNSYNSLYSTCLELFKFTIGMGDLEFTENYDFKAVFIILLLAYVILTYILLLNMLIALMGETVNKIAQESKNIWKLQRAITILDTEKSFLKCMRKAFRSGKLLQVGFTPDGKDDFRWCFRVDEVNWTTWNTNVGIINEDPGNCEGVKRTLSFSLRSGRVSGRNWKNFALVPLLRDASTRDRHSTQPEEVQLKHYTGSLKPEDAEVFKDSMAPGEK

In turn, `COc1cc(CNC(=O)CCCC/C=C/C(C)C)ccc1O` [capsaicin] returned an EC50 of 0.186 µM.

The record behind these values is paper PMC8425881, “De Novo Design of Peptidic Positive Allosteric Modulators Targeting TRPV1 with Analgesic Effects” (Advanced Science, 2021).
